According to paper PMC6268742, “Flavonoids and Other Compounds from Ouratea ferruginea (Ochnaceae) as Anticancer and Chemopreventive Agents” (Molecules, 2012):
Where “and” joins values, the source holds several entries; their conditions need not be identical. Equal entries are not always repeated.

Columns and labels:
[1] = tested on: cytochrome P450-dependent 7-ethoxycoumarin O-deethylase (ECOD); assay: CYP-catalyzed ethoxycoumarin O-desalkylation (ECOD) inhibition assay with rat liver microsomes; type: biochemical; settings: rat hepatic microsomes; for ECOD activity: compound 0.08 mg/mL, activity relative to control (DMSO) = 100%
Description: (§1) Male Wistar rats ([…] weight) were obtained from Universidade da Zona Oeste (UEZO). The animals were kept under light- and temperature-controlled conditions and were provided with rodent laboratory chow and water ad libitum. The rats were euthanized prior to the preparation of cytosolic and microsomal fractions. The livers were removed, placed in ice-cold 0.1 M phosphate buffer (pH 7.4) and then homogenized. Fractions were prepared by differential centrifugation and protein content was determined by Peterson’s methods.
(§2) 5,4′-Dihydroxy-7,3′5′-trimethoxyisoflavone (9), 7,3′-di-O-methylorobol (10), piscigenin (11), and sequoiaflavone (15) were accurately weighed. Solutions were prepared at a concentration of 8 mg/mL using DMSO as a solvent. CYP1A and GST assays were used aliquots of 10 µL of solution.
Ethoxycoumarin O-desalkylation by rat liver microsomes was used as a probe to determine CYP1A activity. Ethoxycumarin (1 mM), NADPH (1 mM), magnesium chloride (10 mM) and rat liver microsomes (5.5 μg) were incubated in phosphate buffer (0.1 M), pH 7.8 (0.5 mL ﬁnal volume). Incubations were at 37 °C for 5 min. The reaction was terminated with trichloroacetic acid (TCA) 2.5% followed by centrifugation (1000 g, 10 min). Immediately before ﬂuorescence determination, 2 mL of glycine-NaOH buffer were added and fluorescence of cumarin was determined (excitation: 390 nm and emission 440 nm). CYP activity was calculated as amount of produced cumarin per minute per protein mg. Assays containing phytochemicals were compared with control with DMSO (dimethylsulfoxide).

[2] = tested on: glutathione S-transferase (GST); assay: Glutathione S-transferase (GST) inhibition assay (CDNB conjugation) with rat hepatic cytosolic fraction; type: biochemical; settings: for inhibition of GST activity: 0.08 mg/mL; for GST activity: compound 0.08 mg/mL, activity relative to control (DMSO), CDNB substrate
Description: as §1, §2
The conjugation of glutathione to 1-chloro-2,4,-dinitrobenzene (CDNB) was measured as a non-speciﬁc substrate for GST activity. To a quartz cuvette reduced cytosolic fraction (10 μg), CDNB (2 mM) and 100 mM potassium phosphate buffer (pH 6.1) were added in a ﬁnal volume of 1 mL. The cuvette was placed in a spectrophotometer and the reaction initiated by the addition of glutathione (5 mM). The increase in absorbance at 340 nm over a 3 min period was measured at room temperature. An extinction coefﬁcient of […] was used to determine activity from the initial slope of the reaction. GST activity was calculated as amount of produced conjugated per minute per protein mg. Assays containing phytochemicals were compared with control with DMSO (dimethylsulfoxide).

CYP1A1 = tested on: CYP1A1; set-up: method as in PMID 15661813; settings: HepG2 cell; cited from earlier work
[3] = tested on: 7-ethoxycoumarin O-deethylase (ECOD); set-up: method as in PMID 9522437; settings: liver microsomes from rats treated with 3-methylcholanthrene; cited from earlier work

Question: With `COc1cc(O)c2c(=O)c(-c3cc(OC)c(O)c(OC)c3)coc2c1` [Compound 9, 5,4′-dihydroxy-7,5′,3′-trimethoxyisoflavone] as the compound, how does the ECOD activity [1] read?
Answer: The ECOD activity was 66.9 ±27.7%.

Question: What about the “inhibition of GST activity” value [2] of the same compound?
Answer: Its value is roughly 75%.

Question: And the GST activity [2]?
Answer: The GST activity was 25.3 ±5.3%.

Question: For `COc1cc(O)c2c(=O)c(-c3ccc(O)c(OC)c3)coc2c1` [Compound 10, 7,3′-di-O-methylorobol], which ECOD activity [1] is on record?
Answer: Its ECOD activity is 77.8 ± 11.6%.

Question: And the “inhibition of GST activity” value [2]?
Answer: The value was “not observed”.

Question: For `COc1cc(-c2coc3cc(O)cc(O)c3c2=O)cc(OC)c1O` [Compound 11, piscigenin], which ECOD activity [1] is on record?
Answer: Its ECOD activity is 53.5 ± 12.4%.

Question: And the “inhibition of GST activity” value [2]?
Answer: Its value is roughly 70%.

Question: What about the GST activity [2] of the same compound?
Answer: The GST activity was 32.2 ±1.3%.

Question: Which “inhibition of ECOD activity” value ([1]; compared with control 100%, 0.08 mg/mL) does the source give for `COc1cc(O)c2c(=O)cc(-c3ccc(O)c(-c4c(O)cc(O)c5c(=O)cc(-c6ccc(O)cc6)oc45)c3)oc2c1` [Compound 15, sequoiaflavone] here?
Answer: Its value is 75%.

Question: And the ECOD activity [1]?
Answer: The ECOD activity was 24.8% and 24.8 ± 1.2%.

Question: And the GST activity [2]?
Answer: The GST activity was 77.4 ± 6.7%.

Question: With `COc1cc(OC)c2c(=O)cc(-c3ccccc3)oc2c1` [DMF, 5,7-Dimethoxyflavone] as the compound, how does the “CYP1A1 EROD activity” value (CYP1A1) read?
Answer: Its value is “virtually down to zero”.

Question: Which “effect on microsomal ECOD activity” value [3] does the source give for (±)-catechin here?
Answer: Its value is “no effect”.
